In the kinase profiling compilation of Christmann-Franck et al. (2016):

Assays:
Assay in all cases: radiometric filter-binding kinase assay, Kinase HotSpot
Details in all cases: compound 0.5 µM; ATP 10 µM
MELK (human) = MELK (human) (UniProt Q14680)
AKT3 (human) = AKT3 (human) (UniProt Q9Y243)
CSNK1G1 (human) = CSNK1G1 (human) (UniProt Q9HCP0)
WNK3 (human) = WNK3 (human) (UniProt Q9BYP7)
CAMK2B (human) = CAMK2B (human) (UniProt Q13554)
MAP4K4 (human) = MAP4K4 (human) (UniProt O95819)
HIPK3 (human) = HIPK3 (human) (UniProt Q9H422)
Sequence of HIPK3 (human) (Q9H422 whole entry, looked up): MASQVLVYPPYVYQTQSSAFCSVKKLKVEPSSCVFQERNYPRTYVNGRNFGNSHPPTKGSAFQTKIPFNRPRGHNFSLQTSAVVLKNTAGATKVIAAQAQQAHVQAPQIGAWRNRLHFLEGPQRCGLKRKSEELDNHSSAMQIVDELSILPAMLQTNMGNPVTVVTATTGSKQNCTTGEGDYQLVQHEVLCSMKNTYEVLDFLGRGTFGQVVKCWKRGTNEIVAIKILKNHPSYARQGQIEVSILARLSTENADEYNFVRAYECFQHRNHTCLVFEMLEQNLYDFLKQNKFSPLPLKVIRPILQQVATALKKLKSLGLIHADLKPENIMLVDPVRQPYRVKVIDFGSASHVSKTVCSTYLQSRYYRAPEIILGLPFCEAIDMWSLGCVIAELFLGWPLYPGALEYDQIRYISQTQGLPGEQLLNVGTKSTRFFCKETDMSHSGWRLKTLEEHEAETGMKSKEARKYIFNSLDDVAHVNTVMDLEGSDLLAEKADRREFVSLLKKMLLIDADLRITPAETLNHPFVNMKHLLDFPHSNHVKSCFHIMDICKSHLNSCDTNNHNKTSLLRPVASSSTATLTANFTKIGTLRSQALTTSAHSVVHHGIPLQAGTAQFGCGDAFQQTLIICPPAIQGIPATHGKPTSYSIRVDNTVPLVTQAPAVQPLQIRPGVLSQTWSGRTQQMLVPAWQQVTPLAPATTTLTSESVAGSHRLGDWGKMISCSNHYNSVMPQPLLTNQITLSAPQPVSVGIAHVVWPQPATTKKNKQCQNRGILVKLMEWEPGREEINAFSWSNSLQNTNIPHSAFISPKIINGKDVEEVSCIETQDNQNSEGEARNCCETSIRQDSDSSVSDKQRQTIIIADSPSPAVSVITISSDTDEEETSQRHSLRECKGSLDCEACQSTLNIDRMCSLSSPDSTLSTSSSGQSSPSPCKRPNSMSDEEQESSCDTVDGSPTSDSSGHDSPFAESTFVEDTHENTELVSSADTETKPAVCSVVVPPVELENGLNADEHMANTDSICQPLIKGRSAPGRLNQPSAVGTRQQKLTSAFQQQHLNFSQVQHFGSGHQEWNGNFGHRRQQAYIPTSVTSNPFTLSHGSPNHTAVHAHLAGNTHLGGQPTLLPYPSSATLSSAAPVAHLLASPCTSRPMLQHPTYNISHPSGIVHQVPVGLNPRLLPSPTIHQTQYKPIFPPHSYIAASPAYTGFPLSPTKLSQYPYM

CAMK1 (human) = CAMK1 (human) (UniProt Q14012)
EGFR (human) = EGFR (human) (UniProt P00533)
Sequence of EGFR (human) (P00533 whole entry, looked up): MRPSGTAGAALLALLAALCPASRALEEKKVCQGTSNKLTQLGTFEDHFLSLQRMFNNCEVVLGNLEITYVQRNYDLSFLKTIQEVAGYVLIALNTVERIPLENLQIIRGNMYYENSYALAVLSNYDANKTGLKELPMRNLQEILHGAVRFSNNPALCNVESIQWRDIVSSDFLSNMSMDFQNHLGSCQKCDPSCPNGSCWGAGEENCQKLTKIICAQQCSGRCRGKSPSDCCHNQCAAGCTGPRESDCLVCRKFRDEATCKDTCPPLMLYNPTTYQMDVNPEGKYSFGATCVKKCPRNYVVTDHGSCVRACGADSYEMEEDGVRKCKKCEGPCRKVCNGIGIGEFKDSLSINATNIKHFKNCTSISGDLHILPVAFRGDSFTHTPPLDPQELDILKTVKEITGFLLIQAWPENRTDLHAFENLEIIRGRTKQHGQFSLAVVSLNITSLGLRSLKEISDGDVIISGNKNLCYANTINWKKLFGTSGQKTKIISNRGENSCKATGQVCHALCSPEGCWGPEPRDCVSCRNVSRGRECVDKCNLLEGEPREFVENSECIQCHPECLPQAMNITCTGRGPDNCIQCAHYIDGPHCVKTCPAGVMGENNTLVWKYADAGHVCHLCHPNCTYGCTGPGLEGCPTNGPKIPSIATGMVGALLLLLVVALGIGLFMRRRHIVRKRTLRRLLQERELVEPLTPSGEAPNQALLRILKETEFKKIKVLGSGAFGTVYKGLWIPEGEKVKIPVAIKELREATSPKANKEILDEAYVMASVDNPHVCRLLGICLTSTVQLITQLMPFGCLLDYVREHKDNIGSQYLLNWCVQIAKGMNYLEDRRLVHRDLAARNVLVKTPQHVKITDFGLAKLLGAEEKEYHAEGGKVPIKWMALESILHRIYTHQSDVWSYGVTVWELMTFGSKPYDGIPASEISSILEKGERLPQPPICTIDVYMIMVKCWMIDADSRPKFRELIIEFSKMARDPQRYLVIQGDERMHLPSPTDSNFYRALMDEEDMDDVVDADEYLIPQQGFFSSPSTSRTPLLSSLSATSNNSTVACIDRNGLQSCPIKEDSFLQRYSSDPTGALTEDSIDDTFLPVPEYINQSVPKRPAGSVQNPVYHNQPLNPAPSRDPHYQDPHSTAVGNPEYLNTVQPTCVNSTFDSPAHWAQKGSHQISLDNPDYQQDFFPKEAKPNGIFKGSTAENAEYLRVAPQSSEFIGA

NTRK1 (human) = NTRK1 (human) (UniProt P04629)
EPHA7 (human) = EPHA7 (human) (UniProt Q15375)
CDK2 CCNE1 (human) = CDK2 CCNE1 (human) (UniProt P24941+P24864)
LCK (human) = LCK (human) (UniProt P06239)
CAMK1D (human) = CAMK1D (human) (UniProt Q8IU85)
CDK7 CCNH MNAT1 (human) = CDK7 CCNH MNAT1 (human) (UniProt P50613+P51948+P51946)
CDK1 CCNB1 (human) = CDK1 CCNB1 (human) (UniProt P06493+P14635)
STK25 (human) = STK25 (human) (UniProt O00506)
GRK6 (human) = GRK6 (human) (UniProt P43250)
Sequence of GRK6 (human) (P43250 whole entry, looked up): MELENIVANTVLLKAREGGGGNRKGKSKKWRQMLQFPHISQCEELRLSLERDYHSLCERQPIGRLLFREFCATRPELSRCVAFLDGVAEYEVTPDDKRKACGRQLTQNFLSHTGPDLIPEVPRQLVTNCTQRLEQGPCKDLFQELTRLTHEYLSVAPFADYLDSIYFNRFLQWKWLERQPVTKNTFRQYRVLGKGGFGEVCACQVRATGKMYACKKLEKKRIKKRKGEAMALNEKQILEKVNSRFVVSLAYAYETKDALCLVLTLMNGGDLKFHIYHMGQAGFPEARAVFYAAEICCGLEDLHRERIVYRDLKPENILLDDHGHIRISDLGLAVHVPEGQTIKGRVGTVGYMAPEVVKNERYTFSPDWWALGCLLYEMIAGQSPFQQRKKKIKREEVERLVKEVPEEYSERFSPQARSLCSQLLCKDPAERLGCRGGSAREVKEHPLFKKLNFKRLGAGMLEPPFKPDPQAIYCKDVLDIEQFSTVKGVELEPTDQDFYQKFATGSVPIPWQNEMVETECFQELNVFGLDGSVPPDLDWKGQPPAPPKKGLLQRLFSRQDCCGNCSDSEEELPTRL

ACVR1 (human) = ACVR1 (human) (UniProt Q04771)
PDGFRB (human) = PDGFRB (human) (UniProt P09619)
LIMK1 (human) = LIMK1 (human) (UniProt P53667)
PRKCG (human) = PRKCG (human) (UniProt P05129)
ALK (human) = ALK (human) (UniProt Q9UM73)
CAMKK1 (human) = CAMKK1 (human) (UniProt Q8N5S9)
GRK5 (human) = GRK5 (human) (UniProt P34947)
CDK3 CCNE1 (human) = CDK3 CCNE1 (human) (UniProt Q00526+P24864)
PRKCA (human) = PRKCA (human) (UniProt P17252)
PRKD3 (human) = PRKD3 (human) (UniProt O94806)
Sequence of PRKD3 (human) (O94806 whole entry, looked up): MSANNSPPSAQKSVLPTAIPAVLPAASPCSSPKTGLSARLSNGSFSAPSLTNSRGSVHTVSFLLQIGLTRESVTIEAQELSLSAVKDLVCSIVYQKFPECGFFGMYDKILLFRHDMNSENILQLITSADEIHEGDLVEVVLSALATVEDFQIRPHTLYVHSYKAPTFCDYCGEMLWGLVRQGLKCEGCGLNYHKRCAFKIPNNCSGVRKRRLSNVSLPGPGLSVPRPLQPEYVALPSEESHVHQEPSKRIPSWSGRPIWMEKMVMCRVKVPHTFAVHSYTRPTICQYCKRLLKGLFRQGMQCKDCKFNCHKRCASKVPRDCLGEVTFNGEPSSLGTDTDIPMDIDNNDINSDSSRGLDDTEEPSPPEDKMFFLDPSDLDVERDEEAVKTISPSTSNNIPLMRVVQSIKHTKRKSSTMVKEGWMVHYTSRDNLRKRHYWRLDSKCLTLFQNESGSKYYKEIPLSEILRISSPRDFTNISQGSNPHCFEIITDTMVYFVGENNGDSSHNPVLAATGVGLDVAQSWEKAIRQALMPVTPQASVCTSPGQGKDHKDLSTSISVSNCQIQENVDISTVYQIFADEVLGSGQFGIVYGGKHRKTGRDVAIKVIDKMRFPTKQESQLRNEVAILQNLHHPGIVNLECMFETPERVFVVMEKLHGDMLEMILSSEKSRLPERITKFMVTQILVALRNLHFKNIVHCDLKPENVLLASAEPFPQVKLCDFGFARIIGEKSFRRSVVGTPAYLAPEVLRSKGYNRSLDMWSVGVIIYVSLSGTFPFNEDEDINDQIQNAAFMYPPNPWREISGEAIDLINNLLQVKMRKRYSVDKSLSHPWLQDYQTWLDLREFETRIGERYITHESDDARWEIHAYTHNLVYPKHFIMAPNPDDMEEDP

NEK2 (human) = NEK2 (human) (UniProt P51955)
SRMS (human) = SRMS (human) (UniProt Q9H3Y6)
PRKCZ (human) = PRKCZ (human) (UniProt Q05513)
PRKD1 (human) = PRKD1 (human) (UniProt Q15139)
PRKCI (human) = PRKCI (human) (UniProt P41743)
ADRBK1 (human) = ADRBK1 (human) (UniProt P25098)
CHUK (human) = CHUK (human) (UniProt O15111)
TGFBR1 (human) = TGFBR1 (human) (UniProt P36897)
SRPK1 (human) = SRPK1 (human) (UniProt Q96SB4)
Sequence of SRPK1 (human) (Q96SB4 whole entry, looked up): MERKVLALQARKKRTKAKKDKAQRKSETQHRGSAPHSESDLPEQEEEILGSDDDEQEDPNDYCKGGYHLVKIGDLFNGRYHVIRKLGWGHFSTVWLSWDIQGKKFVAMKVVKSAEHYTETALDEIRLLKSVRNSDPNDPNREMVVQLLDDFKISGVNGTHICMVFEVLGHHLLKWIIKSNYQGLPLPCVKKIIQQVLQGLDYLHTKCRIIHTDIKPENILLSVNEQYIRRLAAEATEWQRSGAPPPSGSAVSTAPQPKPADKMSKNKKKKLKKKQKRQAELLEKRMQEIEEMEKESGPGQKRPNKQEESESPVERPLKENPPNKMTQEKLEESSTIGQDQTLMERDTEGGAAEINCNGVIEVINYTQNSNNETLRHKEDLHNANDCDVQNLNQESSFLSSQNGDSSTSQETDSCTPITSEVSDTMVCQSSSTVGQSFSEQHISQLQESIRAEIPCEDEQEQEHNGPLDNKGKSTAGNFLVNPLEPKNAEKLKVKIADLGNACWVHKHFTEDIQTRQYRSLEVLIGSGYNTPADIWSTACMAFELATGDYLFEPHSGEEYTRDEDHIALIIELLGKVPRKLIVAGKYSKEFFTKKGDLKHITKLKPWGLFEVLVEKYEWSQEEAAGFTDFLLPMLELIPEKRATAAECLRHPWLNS

PDGFRA (human) = PDGFRA (human) (UniProt P16234)
MINK1 (human) = MINK1 (human) (UniProt Q8N4C8)
MKNK2 (human) = MKNK2 (human) (UniProt Q9HBH9)
NEK4 (human) = NEK4 (human) (UniProt P51957)
DYRK1A (human) = DYRK1A (human) (UniProt Q13627)

Sequence of AKT3 (human) (Q9Y243 whole entry, looked up): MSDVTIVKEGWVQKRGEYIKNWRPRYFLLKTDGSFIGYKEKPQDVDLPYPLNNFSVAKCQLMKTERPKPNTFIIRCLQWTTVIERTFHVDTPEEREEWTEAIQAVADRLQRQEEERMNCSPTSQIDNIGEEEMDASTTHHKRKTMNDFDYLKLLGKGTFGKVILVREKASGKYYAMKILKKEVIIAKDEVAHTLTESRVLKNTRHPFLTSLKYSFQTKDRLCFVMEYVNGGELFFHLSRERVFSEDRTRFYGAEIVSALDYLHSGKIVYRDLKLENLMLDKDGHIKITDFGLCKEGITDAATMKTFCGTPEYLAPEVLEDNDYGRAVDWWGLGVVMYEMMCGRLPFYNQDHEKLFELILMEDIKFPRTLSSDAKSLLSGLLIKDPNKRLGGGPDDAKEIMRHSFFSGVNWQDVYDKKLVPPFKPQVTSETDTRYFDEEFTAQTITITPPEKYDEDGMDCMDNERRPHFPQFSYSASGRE

## CCCC(=O)Oc1ccc2[nH]c(C(=O)c3cc4ccccc4[nH]3)cc2c1
MELK (human)
  residual activity: 96.4%
AKT3 (human)
  residual activity: 101%
CSNK1G1 (human)
  residual activity: 76.1%
WNK3 (human)
  residual activity: 101%
CAMK2B (human)
  residual activity: 90%
MAP4K4 (human)
  residual activity: 97.3%
HIPK3 (human)
  residual activity: 94.7%
CAMK1 (human)
  residual activity: 98.8%
EGFR (human)
  residual activity: 95.2%
NTRK1 (human)
  residual activity: 98.6%
EPHA7 (human)
  residual activity: 97.2%
CDK2 CCNE1 (human)
  residual activity: 92.1%
LCK (human)
  residual activity: 94%
CAMK1D (human)
  residual activity: 103%
CDK7 CCNH MNAT1 (human)
  residual activity: 98.7%
CDK1 CCNB1 (human)
  residual activity: 106%
STK25 (human)
  residual activity: 94.5%
GRK6 (human)
  residual activity: 95.8%
ACVR1 (human)
  residual activity: 100%
PDGFRB (human)
  residual activity: 91.2%
LIMK1 (human)
  residual activity: 93.9%
PRKCG (human)
  residual activity: 99%
ALK (human)
  residual activity: 83.7%
CAMKK1 (human)
  residual activity: 106%
GRK5 (human)
  residual activity: 100%
CDK3 CCNE1 (human)
  residual activity: 88.2%
PRKCA (human)
  residual activity: 102%
PRKD3 (human)
  residual activity: 102%
NEK2 (human)
  residual activity: 86.8%
SRMS (human)
  residual activity: 104%
PRKCZ (human)
  residual activity: 98.3%
PRKD1 (human)
  residual activity: 88.7%
PRKCI (human)
  residual activity: 99.2%
ADRBK1 (human)
  residual activity: 101%
CHUK (human)
  residual activity: 94.5%
TGFBR1 (human)
  residual activity: 101%
SRPK1 (human)
  residual activity: 105%
PDGFRA (human)
  residual activity: 96.6%
MINK1 (human)
  residual activity: 93.8%
MKNK2 (human)
  residual activity: 105%
NEK4 (human)
  residual activity: 96.4%

## Cc1ccc(Nc2nccc(N(C)c3ccc4c(C)n(C)nc4c3)n2)cc1S(N)(=O)=O
MELK (human)
  residual activity: 87.5%
AKT3 (human)
  residual activity: 93.3%
CSNK1G1 (human)
  residual activity: 100%
WNK3 (human)
  residual activity: 98.6%
CAMK2B (human)
  residual activity: 95.5%
MAP4K4 (human)
  residual activity: 77.4%
HIPK3 (human)
  residual activity: 103%
CAMK1 (human)
  residual activity: 87.4%
EGFR (human)
  residual activity: 91%
NTRK1 (human)
  residual activity: 91.8%
EPHA7 (human)
  residual activity: 94.1%
CDK2 CCNE1 (human)
  residual activity: 96.4%
LCK (human)
  residual activity: 43.3%
CAMK1D (human)
  residual activity: 91.5%
CDK7 CCNH MNAT1 (human)
  residual activity: 103%
CDK1 CCNB1 (human)
  residual activity: 99.6%
STK25 (human)
  residual activity: 97.3%
GRK6 (human)
  residual activity: 102%
ACVR1 (human)
  residual activity: 104%
PDGFRB (human)
  residual activity: 40.4%
PRKCG (human)
  residual activity: 93.5%
ALK (human)
  residual activity: 85.3%
CAMKK1 (human)
  residual activity: 72%
GRK5 (human)
  residual activity: 99.6%
CDK3 CCNE1 (human)
  residual activity: 93.5%
PRKCA (human)
  residual activity: 94.4%
PRKD3 (human)
  residual activity: 90%
NEK2 (human)
  residual activity: 110%
SRMS (human)
  residual activity: 115%
PRKCZ (human)
  residual activity: 97.7%
PRKD1 (human)
  residual activity: 96.9%
PRKCI (human)
  residual activity: 96.1%
ADRBK1 (human)
  residual activity: 90.3%
CHUK (human)
  residual activity: 99.4%
TGFBR1 (human)
  residual activity: 103%
SRPK1 (human)
  residual activity: 100%
PDGFRA (human)
  residual activity: 13.9%
MINK1 (human)
  residual activity: 73.7%
MKNK2 (human)
  residual activity: 107%
NEK4 (human)
  residual activity: 91.1%

## CCOC(=O)c1c(C)[nH]c(/C=C2\C(=O)Nc3ccccc32)c1C
MELK (human)
  residual activity: 87.4%
AKT3 (human)
  residual activity: 103%
CSNK1G1 (human)
  residual activity: 103%
WNK3 (human)
  residual activity: 104%
CAMK2B (human)
  residual activity: 96%
MAP4K4 (human)
  residual activity: 64.5%
HIPK3 (human)
  residual activity: 94.5%
CAMK1 (human)
  residual activity: 98.1%
EGFR (human)
  residual activity: 92.2%
NTRK1 (human)
  residual activity: 69.9%
EPHA7 (human)
  residual activity: 85.3%
DYRK1A (human)
  residual activity: 95.7%
CDK2 CCNE1 (human)
  residual activity: 95.6%
LCK (human)
  residual activity: 88.2%
CAMK1D (human)
  residual activity: 93.1%
CDK7 CCNH MNAT1 (human)
  residual activity: 96.8%
CDK1 CCNB1 (human)
  residual activity: 100%
STK25 (human)
  residual activity: 98.5%
GRK6 (human)
  residual activity: 90.8%
ACVR1 (human)
  residual activity: 99.8%
PDGFRB (human)
  residual activity: 69.1%
LIMK1 (human)
  residual activity: 81.3%
PRKCG (human)
  residual activity: 91.9%
ALK (human)
  residual activity: 79.2%
CAMKK1 (human)
  residual activity: 95.3%
GRK5 (human)
  residual activity: 102%
CDK3 CCNE1 (human)
  residual activity: 94%
PRKD3 (human)
  residual activity: 90.1%
NEK2 (human)
  residual activity: 91.4%
SRMS (human)
  residual activity: 104%
PRKCZ (human)
  residual activity: 97%
PRKD1 (human)
  residual activity: 91.3%
PRKCI (human)
  residual activity: 92.9%
ADRBK1 (human)
  residual activity: 98.2%
CHUK (human)
  residual activity: 102%
TGFBR1 (human)
  residual activity: 99.7%
SRPK1 (human)
  residual activity: 95.4%
PDGFRA (human)
  residual activity: 82.8%
MINK1 (human)
  residual activity: 88.9%
MKNK2 (human)
  residual activity: 87.4%
NEK4 (human)
  residual activity: 95.1%
